From publication PMC11457037 (Journal of medicinal chemistry, 2023)

Target: T1, EV-D68 2A^pro (Enterovirus D68, UniProt A0A097BW19)
Test: Enzyme kinetic studies
Type: biochemical
Settings: from fitting of kinetic curves

Row | Mode of inhibition of EV-D68 2A^pro | Structure (SMILES)
1 | reversible binding | CC(C)(C)[C@H](NC(=O)CC12CC3CC(CC(C3)C1)C2)C(=O)N1C[C@@H]2CCC[C@@H]2[C@H]1C(=O)N[C@H](C=O)Cc1ccc(F)cc1 [Jun11707, (1S,3aR,6aS)-2-((S)-2-(2-((3S,5S,7S)-adamantan-1-yl)acetamido)-3,3-dimethylbutanoyl)-N-((S)-1-(4-fluorophenyl)-3-oxopropan-2-yl)octahydrocyclopenta[c]pyrrole-1-carboxamide]
2 | reversible binding | CC(C)(C)[C@H](NC(=O)CC12CC3CC(CC(C3)C1)C2)C(=O)N1C[C@@H]2CCC[C@@H]2[C@H]1C(=O)N[C@H](C(=O)C(=O)NC1CC1)C1CCCC1 [Jun11808, (1S,3aR,6aS)-2-((S)-2-(2-((3S,5S,7S)-adamantan-1-yl)acetamido)-3,3-dimethylbutanoyl)-N-((S)-1-cyclopentyl-3-(cyclopropylamino)-2,3-dioxopropyl)octahydrocyclopenta[c]pyrrole-1-carboxamide]

System: EV-D68
Test: not given
Settings: respiratory and neurological disease mouse models; cited from earlier work

Row | Structure (SMILES) | therapeutic efficacy in EV-D68 mouse models
3 | CC(C)S(=O)(=O)n1c(N)nc2ccc(/C(=N/O)c3ccccc3)cc21 [enviroxime] | none of these antivirals showed therapeutic efficacy
4 | CCOC(=O)c1ccc(OCCC2CCN(c3ccc(C)nn3)CC2)cc1 [pirodavir] | none of these antivirals showed therapeutic efficacy
5 | Cc1cc(CCCOc2c(C)cc(-c3noc(C(F)(F)F)n3)cc2C)on1 [pleconaril] | none of these antivirals showed therapeutic efficacy
6 | NC(=O)c1ncn([C@@H]2O[C@H](CO)[C@@H](O)[C@H]2O)n1 [ribavirin] | none of these antivirals showed therapeutic efficacy
7 | CCOC(=O)/C=C/[C@H](C[C@@H]1CCNC1=O)NC(=O)[C@@H](CC(=O)[C@@H](NC(=O)c1cc(C)on1)C(C)C)Cc1ccc(F)cc1 [rupintrivir] | none of these antivirals showed therapeutic efficacy

Target: T1, EV-D68 2A^pro
Test: FRET-based enzymatic assay
Type: biochemical
Settings: not given

Row | Structure (SMILES) | enzymatic inhibition, comparison in words
8 | CCC[C@H](NC(=O)[C@@H]1[C@H]2CCC[C@H]2CN1C(=O)[C@@H](NC(=O)NC12CC3CC(CC(C3)C1)C2)C(C)(C)C)C(=O)C(=O)NC1CC1 [Jun1023, (1S)-2-((S)-2-(3-((3R,5R,7R)-adamantan-1-yl)ureido)-3,3-dimethylbutanoyl)-N-((S)-1-(cyclopropylamino)-1,2-dioxohexan-3-yl)octahydrocyclopenta[c]pyrrole-1-carboxamide] | reduced enzymatic inhibition
9 | CCC[C@H](NC(=O)[C@@H]1[C@H]2CCC[C@H]2CN1C(=O)[C@@H](NC(=O)OCc1ccccc1)C(C)(C)C)C(=O)C(=O)NC1CC1 [Jun7426, Benzyl ((S)-1-((1S,3aR,6aS)-1-(((S)-1-(cyclopropylamino)-1,2-dioxohexan-3-yl)carbamoyl)hexahydrocyclopenta[c]pyrrol-2(1H)-yl)-3,3-dimethyl-1-oxobutan-2-yl)carbamate] | reduced enzymatic inhibition and antiviral activity compared to telaprevir
10 | CCC[C@H](NC(=O)[C@@H]1[C@H]2CCC[C@H]2CN1C(=O)[C@@H](NC(=O)Cc1ccccc1)C(C)(C)C)C(=O)C(=O)NC1CC1 [Jun8681, (1S,3aR,6aS)-N-((S)-1-(cyclopropylamino)-1,2-dioxohexan-3-yl)-2-((S)-3,3-dimethyl-2-(2-phenylacetamido)butanoyl)octahydrocyclopenta[c]pyrrole-1-carboxamide] | reduced enzymatic inhibition and antiviral activity compared to telaprevir
11 | CCC[C@H](NC(=O)[C@@H]1[C@H]2CCC[C@H]2CN1C(=O)[C@@H](NC(=O)/C=C/c1ccccc1)C(C)(C)C)C(=O)C(=O)NC1CC1 [Jun8813, (1S,3aR,6aS)-2-((S)-2-cinnamamido-3,3-dimethylbutanoyl)-N-((S)-1-(cyclopropylamino)-1,2-dioxohexan-3-yl)octahydrocyclopenta[c]pyrrole-1-carboxamide] | reduced enzymatic inhibition and antiviral activity compared to telaprevir
12 | CC(C)[C@H](NC(=O)[C@@H]1[C@H]2CCC[C@H]2CN1C(=O)[C@@H](NC(=O)CC12CC3CC(CC(C3)C1)C2)C(C)(C)C)C(=O)C(=O)NC1CC1 [Jun11718, (1S,3aR,6aS)-2-((S)-2-(2-((3S,5S,7S)-adamantan-1-yl)acetamido)-3,3-dimethylbutanoyl)-N-((S)-1-(cyclopropylamino)-4-methyl-1,2-dioxopentan-3-yl)octahydrocyclopenta[c]pyrrole-1-carboxamide] | comparable enzymatic inhibition and antiviral activity as Jun8861
13 | CC(C)(C)[C@H](NC(=O)CC12CC3CC(CC(C3)C1)C2)C(=O)N1C[C@@H]2CCC[C@@H]2[C@H]1C(=O)N[C@@H](Cc1ccc(F)cc1)C(=O)C(=O)NC1CC1 [Jun11763, (1S,3aR,6aS)-2-((S)-2-(2-((3S,5S,7S)-adamantan-1-yl)acetamido)-3,3-dimethylbutanoyl)-N-((S)-4-(cyclopropylamino)-1-(4-fluorophenyl)-3,4-dioxobutan-2-yl)octahydrocyclo-penta[c]pyrrole-1-carboxamide] | comparable enzymatic inhibition and antiviral activity as Jun11385
14 | CC(C)(C)[C@H](NC(=O)CC12CC3CC(CC(C3)C1)C2)C(=O)N1C[C@@H]2CCC[C@@H]2[C@H]1C(=O)NC1(C(=O)C(=O)NC2CC2)CCCCC1 [Jun11805, (1S,3aR,6aS)-2-((S)-2-(2-((3S,5S,7S)-adamantan-1-yl)acetamido)-3,3-dimethylbutanoyl)-N-(1-(2-(cyclopropylamino)-2-oxoacetyl)cyclohexyl)octahydrocyclopenta[c]pyrrole-1-carboxamide] | less active compared to Jun11762
15 | CC(C)(C)[C@H](NC(=O)CC12CC3CC(CC(C3)C1)C2)C(=O)N1C[C@@H]2CCC[C@@H]2[C@H]1C(=O)NC1(C(=O)C(=O)NC2CC2)CCC1 [Jun11806, (1S,3aR,6aS)-2-((S)-2-(2-((3S,5S,7S)-adamantan-1-yl)acetamido)-3,3-dimethylbutanoyl)-N-(1-(2-(cyclopropylamino)-2 oxoacetyl)cyclobutyl)octahydrocyclopenta[c]pyrrole-1-carboxamide] | less active compared to Jun11762
16 | CC(C)(C)[C@H](NC(=O)CC12CC3CC(CC(C3)C1)C2)C(=O)N1C[C@@H]2CCC[C@@H]2[C@H]1C(=O)N[C@H](C(=O)C(=O)NC1CC1)C1CCCC1 [Jun11808, (1S,3aR,6aS)-2-((S)-2-(2-((3S,5S,7S)-adamantan-1-yl)acetamido)-3,3-dimethylbutanoyl)-N-((S)-1-cyclopentyl-3-(cyclopropylamino)-2,3-dioxopropyl)octahydrocyclopenta[c]pyrrole-1-carboxamide] | comparable enzymatic inhibition and antiviral activity as Jun8861
17 | CC(C)(C)[C@H](NC(=O)CC12CC3CC(CC(C3)C1)C2)C(=O)N1C[C@@H]2CCC[C@@H]2[C@H]1C(=O)N[C@H](C(=O)C(=O)NC1CC1)c1ccccc1 [Jun11817, (1S,3aR,6aS)-2-((S)-2-(2-((3S,5S,7S)-adamantan-1-yl)acetamido)-3,3-dimethylbutanoyl)-N-((S)-3-(cyclopropylamino)-2,3-dioxo-1-phenylpropyl)octahydrocyclopenta[c]pyrrole-1-carboxamide] | less active
18 | CC(C)(C)[C@H](NC(=O)CC12CC3CC(CC(C3)C1)C2)C(=O)N1C[C@@H]2CCC[C@@H]2[C@H]1C(=O)N[C@H](C(=O)C(=O)NC1CC1)c1ccc(F)cc1 [Jun11861, (1S,3aR,6aS)-2-((S)-2-(2-((3S,5S,7S)-adamantan-1-yl)acetamido)-3,3-dimethylbutanoyl)-N-((S)-3-(cyclopropylamino)-1-(4-fluorophenyl)-2,3-dioxopropyl)octahydrocyclopenta[c]pyrrole-1-carboxamide] | less active
19 | CC(C)(C)[C@H](NC(=O)CC12CC3CC(CC(C3)C1)C2)C(=O)N1C[C@@H]2CCC[C@@H]2[C@H]1C(=O)N[C@@H](Cc1c[nH]c2ccccc12)C(=O)C(=O)NC1CC1 [Jun11862, (1S,3aR,6aS)-2-((S)-2-(2-((3S,5S,7S)-adamantan-1-yl)acetamido)-3,3-dimethylbutanoyl)-N-((S)-4-(cyclopropylamino)-1-(1H-indol-3-yl)-3,4-dioxobutan-2-yl)octahydrocyclopenta[c]pyrrole-1-carboxamide] | comparable enzymatic inhibition and antiviral activity as Jun11385

System: EV-D68 US/MO/14-18947
Test: CPE assay with EV-D68 US/MO/14-18947 in R.D. cells
Type: cell-based, Enterovirus D68
Settings: CPE assay EV-D68 US/MO/14-18947

Row | Structure (SMILES) | antiviral activity, comparison in words
20 | COC[C@H](NC(=O)[C@@H]1[C@H]2CCC[C@H]2CN1C(=O)[C@@H](NC(=O)CC12CC3CC(CC(C3)C1)C2)C(C)(C)C)C(=O)C(=O)NC1CC1 [Jun11672, (1S,3aR,6aS)-2-((S)-2-(2-((3S,5S,7S)-adamantan-1-yl)acetamido)-3,3-dimethylbutanoyl)-N-((S)-4-(cyclopropylamino)-1-methoxy-3,4-dioxobutan-2-yl)octahydrocyclopenta[c]pyrrole-1-carboxamide] | not active as Jun8861

Same assay, conditions: Enterovirus D, EVD68, RD, read-out: Antiviral EC50

Row | EC50 | Structure (SMILES)
21 | 0.16 to 0.75 µM | CCC[C@H](NC(=O)[C@@H]1[C@H]2CCC[C@H]2CN1C(=O)[C@@H](NC(=O)CC1CCCC1)C(C)(C)C)C(=O)C(=O)NC1CC1 [Jun971, (1S,3aR,6aS)-2-((S)-2-(2-cyclopentylacetamido)-3,3-dimethylbutanoyl)-N-((S)-1-(cyclopropylamino)-1,2-dioxohexan-3-yl)octahydrocyclopenta[c]pyrrole-1-carboxamide]
22 | 0.16 to 0.75 µM | CCC[C@H](NC(=O)[C@@H]1[C@H]2CCC[C@H]2CN1C(=O)[C@@H](NC(=O)CC1CCC(F)(F)CC1)C(C)(C)C)C(=O)C(=O)NC1CC1 [Jun975, (1S,3aR,6aS)-N-((S)-1-(cyclopropylamino)-1,2-dioxohexan-3-yl)-2-((S)-2-(2-(4,4-difluorocyclohexyl)acetamido)-3,3-dimethylbutanoyl)octahydrocyclopenta[c]pyrrole-1-carboxamide]
23 | 0.16 to 0.75 µM | CCC[C@H](NC(=O)[C@@H]1[C@H]2CCC[C@H]2CN1C(=O)[C@@H](NC(=O)CC1CCCCC1)C(C)(C)C)C(=O)C(=O)NC1CC1 [Jun8814, (1S,3aR,6aS)-2-((S)-2-(2-cyclohexylacetamido)-3,3-dimethylbutanoyl)-N-((S)-1-(cyclopropylamino)-1,2-dioxohexan-3-yl)octahydrocyclopenta[c]pyrrole-1-carboxamide]
